# Read-outs that look alike come from different tables or passages of the source.
# How the values were obtained:
# Assay type in all cases: cell-based
# [1] = biological target: T1, EGFR L858R-T790M (Homo sapiens, UniProt P00533, L858R/T790M); experiment: EGFR degradation, Total EGFR (L858R-specific) HTRF, NCI-H1975; conditions: NCI-H1975 cells, 6 hours, Total EGFR HTRF, read-out: H1975 EGFR DC50
# T1 construct: NCI-H1975 (harboring EGFR heterozygous L858R-T790M mutations); host or cells: NCI-H1975
# T1 sequence (P00533 25-1210 T790M/L858R): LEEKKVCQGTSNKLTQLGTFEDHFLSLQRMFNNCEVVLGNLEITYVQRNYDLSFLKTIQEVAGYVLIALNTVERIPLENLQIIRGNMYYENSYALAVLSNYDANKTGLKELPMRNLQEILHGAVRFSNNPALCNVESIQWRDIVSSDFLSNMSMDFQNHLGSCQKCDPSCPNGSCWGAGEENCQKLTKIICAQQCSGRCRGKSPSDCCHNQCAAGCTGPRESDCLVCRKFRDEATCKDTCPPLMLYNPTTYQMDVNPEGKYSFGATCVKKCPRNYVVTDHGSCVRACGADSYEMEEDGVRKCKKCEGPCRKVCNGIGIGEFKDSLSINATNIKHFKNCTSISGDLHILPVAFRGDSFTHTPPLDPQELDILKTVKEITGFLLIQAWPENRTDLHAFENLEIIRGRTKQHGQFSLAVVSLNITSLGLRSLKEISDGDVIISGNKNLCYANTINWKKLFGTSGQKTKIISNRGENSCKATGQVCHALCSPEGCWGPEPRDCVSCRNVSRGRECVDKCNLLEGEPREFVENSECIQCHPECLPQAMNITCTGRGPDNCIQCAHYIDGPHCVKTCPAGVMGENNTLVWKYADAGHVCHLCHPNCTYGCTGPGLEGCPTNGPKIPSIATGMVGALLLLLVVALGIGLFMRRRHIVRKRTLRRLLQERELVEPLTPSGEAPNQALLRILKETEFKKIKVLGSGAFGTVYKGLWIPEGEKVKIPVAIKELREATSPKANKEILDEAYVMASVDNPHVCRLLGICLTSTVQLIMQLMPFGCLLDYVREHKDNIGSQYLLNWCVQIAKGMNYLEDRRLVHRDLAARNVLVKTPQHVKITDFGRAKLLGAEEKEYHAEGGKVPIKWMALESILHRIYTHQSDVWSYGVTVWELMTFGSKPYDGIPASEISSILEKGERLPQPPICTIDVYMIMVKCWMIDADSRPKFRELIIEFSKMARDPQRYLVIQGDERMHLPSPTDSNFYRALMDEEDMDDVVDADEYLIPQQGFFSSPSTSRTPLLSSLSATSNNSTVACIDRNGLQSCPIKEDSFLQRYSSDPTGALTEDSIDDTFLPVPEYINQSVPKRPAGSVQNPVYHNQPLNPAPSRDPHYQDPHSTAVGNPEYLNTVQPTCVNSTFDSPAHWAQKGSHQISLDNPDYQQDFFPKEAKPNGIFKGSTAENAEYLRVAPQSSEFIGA
# Outline: (§1)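 FRET signal from HTRF kits measured phospho-EGFR at pY1068 or total EGFR after 6 h treatment at 37 °C. Compounds ran as 11-point half-log dilutions from 10 μM in duplicate, in cells in phenol red-free RPMI with 10% FBS. Concentrations giving 50% inhibition or degradation were reported as IC50 or DC50.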
# [2] = biological target: T2, EGFR L858R-T790M-C797S (Homo sapiens, UniProt P00533, C797S/L858R/T790M); experiment: EGFR degradation, Total EGFR (L858R-specific) HTRF, NCI-H1975+CS; conditions: 6 hours, Total EGFR HTRF
# T2 construct: generated using CRISPR technology to introduce the additional C797S mutation by Horizon Discovery; host or cells: NCI-H1975+CS (CRISPR knock-in of C797S)
# T2 sequence (P00533 25-1210 T790M/C797S/L858R): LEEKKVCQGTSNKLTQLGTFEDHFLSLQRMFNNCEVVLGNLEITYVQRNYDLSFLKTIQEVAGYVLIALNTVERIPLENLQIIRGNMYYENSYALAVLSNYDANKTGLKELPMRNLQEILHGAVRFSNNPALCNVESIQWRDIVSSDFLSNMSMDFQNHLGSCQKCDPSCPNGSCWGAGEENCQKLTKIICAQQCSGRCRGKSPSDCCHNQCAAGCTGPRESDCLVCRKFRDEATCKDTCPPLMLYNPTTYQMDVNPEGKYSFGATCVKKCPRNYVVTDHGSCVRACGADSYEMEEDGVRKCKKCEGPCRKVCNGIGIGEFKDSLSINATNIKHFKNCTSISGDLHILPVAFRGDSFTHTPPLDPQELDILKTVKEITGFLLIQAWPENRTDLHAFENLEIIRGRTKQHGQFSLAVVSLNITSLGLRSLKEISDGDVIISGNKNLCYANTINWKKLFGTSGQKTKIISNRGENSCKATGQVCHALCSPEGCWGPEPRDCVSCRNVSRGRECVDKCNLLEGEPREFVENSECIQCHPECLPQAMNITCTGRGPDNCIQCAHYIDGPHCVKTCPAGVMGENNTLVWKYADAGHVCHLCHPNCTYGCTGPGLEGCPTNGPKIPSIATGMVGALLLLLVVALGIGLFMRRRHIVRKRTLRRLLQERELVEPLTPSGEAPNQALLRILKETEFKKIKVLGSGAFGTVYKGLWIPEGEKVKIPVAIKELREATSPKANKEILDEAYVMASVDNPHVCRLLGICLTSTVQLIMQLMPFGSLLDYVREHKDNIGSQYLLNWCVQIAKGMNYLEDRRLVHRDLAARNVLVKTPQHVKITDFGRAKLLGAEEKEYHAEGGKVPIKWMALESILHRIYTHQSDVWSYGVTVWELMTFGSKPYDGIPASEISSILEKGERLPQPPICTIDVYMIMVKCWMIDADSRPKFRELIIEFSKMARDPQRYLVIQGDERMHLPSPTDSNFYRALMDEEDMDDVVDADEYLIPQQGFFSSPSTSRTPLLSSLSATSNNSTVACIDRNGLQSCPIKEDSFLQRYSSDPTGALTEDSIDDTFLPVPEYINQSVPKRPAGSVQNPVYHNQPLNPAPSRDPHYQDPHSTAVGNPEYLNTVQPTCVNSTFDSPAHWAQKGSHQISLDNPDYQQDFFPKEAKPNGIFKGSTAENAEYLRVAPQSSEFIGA
# Source text: NCI-H1975 (harboring EGFR heterozygous L858R-T790M mutations) and NCI-H3255 (harboring EGFR heterozygous L858R mutation) were purchased from ATCC and NCI, respectively. NCI-H1975+CS (harboring EGFR heterozygous L858R-T790M-C797S mutations) was generated using CRISPR technology to introduce the additional C797S mutation by Horizon Discovery. A431 (harboring EGFR wildtype) was purchased from ATCC. RPMI 1640 no-phenol red medium and fetal bovine serum (FBS) were purchased from Gibco (Grand Island, NY, USA). Cell culture flasks and 384-well microplates were acquired from VWR (Radnor, PA, USA). Phosphorylated (pY1068) EGFR and Total EGFR (using L858R-specific detection antibody and pan-EGFR antibody for EGFR mutant cell lines and EGFR wild-type cell lines, respectively) HTRF assay kits were purchased from Cisbio (Bedford, MA, USA).
# Degradation of EGFR protein containing L858R mutation or wild-type was determined based on quantification of FRET signal using a Total EGFR (L858R-specific or pan-EGFR detecting) HTRF assay kit. Phospho-EGFR (pEGFR) inhibition was determined based on quantification of FRET signal using a pY1068 EGFR HTRF assay kit. In separate assay plates, test compounds were added to the 384-well plate from a top concentration of 10 μM with 11 points, half log titration in duplicates. For each assay, 12.5 uL of cells suspended in assay media (RPMI 1640 no-phenol red medium+10% FBS) at cell densities indicated for each cell line in Table 8 below were dispensed using a multi-channel pipette to 384-well low volume white HTRF microplates containing a duplicate concentration range of test compounds and DMSO controls. The plates were kept at 37° C. with 5% CO2 for 6 hours and then incubated with either phospho EGFR or Total EGFR HTRF detection antibodies according to the cell line and EGFR mutant being assayed. Cells treated in the absence of the test compound were the negative control. Positive control was set by wells containing all reagents but no cells. FRET signal was acquired on EnVision™ Multilabel Reader (PerkinElmer, Santa Clara, CA, USA). Compound concentration that achieves 50% degradation and inhibition was reported as DC50 and IC50, respectively.
# [3] = biological target: EGFR L858R (Homo sapiens, UniProt P00533, L858R); experiment: EGFR degradation, Total EGFR (L858R-specific) HTRF, NCI-H3255; design: NCI-H3255 (harboring EGFR heterozygous L858R mutation); host or cells: NCI-H3255; conditions: NCI-H3255 cells, 6 hours, Total EGFR HTRF, read-out: H3255 EGFR DC50
# Chain of EGFR L858R (P00533 25-1210 L858R): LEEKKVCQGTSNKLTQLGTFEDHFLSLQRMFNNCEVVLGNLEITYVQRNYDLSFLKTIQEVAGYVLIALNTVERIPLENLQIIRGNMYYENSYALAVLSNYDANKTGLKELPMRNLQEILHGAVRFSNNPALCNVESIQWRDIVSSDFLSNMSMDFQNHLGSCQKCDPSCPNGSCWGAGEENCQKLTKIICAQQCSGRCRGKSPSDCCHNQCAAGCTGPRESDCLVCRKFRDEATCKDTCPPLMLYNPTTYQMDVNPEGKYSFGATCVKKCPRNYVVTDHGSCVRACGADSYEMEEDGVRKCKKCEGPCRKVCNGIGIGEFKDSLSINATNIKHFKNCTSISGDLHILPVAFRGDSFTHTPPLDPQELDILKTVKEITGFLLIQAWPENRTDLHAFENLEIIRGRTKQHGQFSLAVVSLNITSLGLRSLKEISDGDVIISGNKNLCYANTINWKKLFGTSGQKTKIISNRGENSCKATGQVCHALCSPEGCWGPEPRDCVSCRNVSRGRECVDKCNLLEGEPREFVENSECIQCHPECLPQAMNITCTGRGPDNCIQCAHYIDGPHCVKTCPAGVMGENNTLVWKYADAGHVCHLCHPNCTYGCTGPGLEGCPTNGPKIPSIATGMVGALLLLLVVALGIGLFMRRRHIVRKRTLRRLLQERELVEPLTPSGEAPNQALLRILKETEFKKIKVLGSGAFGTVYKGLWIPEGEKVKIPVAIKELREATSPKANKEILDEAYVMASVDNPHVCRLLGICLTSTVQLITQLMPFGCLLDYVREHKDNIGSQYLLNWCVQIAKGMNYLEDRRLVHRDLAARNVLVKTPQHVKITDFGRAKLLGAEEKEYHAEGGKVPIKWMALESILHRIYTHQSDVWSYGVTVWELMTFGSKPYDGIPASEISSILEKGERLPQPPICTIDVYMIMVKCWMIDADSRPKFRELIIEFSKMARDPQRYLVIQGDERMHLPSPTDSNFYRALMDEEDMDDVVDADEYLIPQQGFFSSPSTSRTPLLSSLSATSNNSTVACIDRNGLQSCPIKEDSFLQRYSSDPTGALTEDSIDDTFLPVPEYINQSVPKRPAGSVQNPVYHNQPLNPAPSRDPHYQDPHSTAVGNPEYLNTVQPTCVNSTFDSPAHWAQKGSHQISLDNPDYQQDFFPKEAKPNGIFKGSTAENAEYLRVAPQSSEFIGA
# Outline: as §1
# [4] = Table 9A, NCI-H1975+CS cells, read-out: H1975+ CS EGFR DC50
# [5] = Table 9B, NCI-H1975 C797S clone, read-out: H1975 C797S clone EGFR DC50
DC50 ([1]; Table 9A),"DC50 [2, 4]",DC50 ([3]; Table 9A),DC50 ([1]; Table 9B),"DC50 [2, 5]",DC50 ([3]; Table 9B),SMILES
< 50 nM,< 50 nM,< 50 nM,–,–,–,"O=C1CCC(Nc2ccc(C3CCN(CC(=O)N4CCN(c5ccc(-c6cc(F)c7c(c6)C(=O)N(C(C(=O)Nc6nccs6)c6ncn8c6CCC8)C7)cc5)CC4)CC3)cc2)C(=O)N1 (stereo not drawn) [Compound 55, 2-(6,7-dihydro-5H-pyrrolo[1,2-c]imidazol-1-yl)-2-[6-[4-[4-[2-[4-[4-[(2,6-dioxo-3-piperidyl)amino]phenyl]-1-piperidyl]acetyl]piperazin-1-yl]phenyl]-4-fluoro-1-oxo-isoindolin-2-yl]-N-thiazol-2-yl-acetamide]"
50 to 150 nM,< 50 nM,< 50 nM,–,–,–,"O=C1CCC(Nc2ccc(C3CCN(CC(=O)N4CCC(Oc5ccc(-c6cc(F)c7c(c6)C(=O)N(C(C(=O)Nc6nccs6)c6ncn8c6CCC8)C7)cc5)CC4)CC3)cc2F)C(=O)N1 (stereo not drawn) [Compound 34, 2-(6,7-dihydro-5H-pyrrolo[1,2-c]imidazol-1-yl)-2-(6-(4-((1-(2-(4-(4-((2,6-dioxopiperidin-3-yl)amino)-3-fluorophenyl)piperidin-1-yl)acetyl)piperidin-4-yl)oxy)phenyl)-4-fluoro-1-oxoisoindolin-2-yl)-N-(thiazol-2-yl)acetamide]"
< 50 nM,< 50 nM,< 50 nM,–,–,–,"O=C1CCC(Nc2ccc(C3CCN(CC(=O)N4CCC(c5ccc(-c6cc(F)c7c(c6)C(=O)N(C(C(=O)Nc6nccs6)c6ncn8c6CCC8)C7)cc5)CC4)CC3)cc2)C(=O)N1 (stereo not drawn) [Compound 21, 2-(6,7-dihydro-5H-pyrrolo[1,2-c]imidazol-1-yl)-2-(6-(4-(1-(2-(4-(4-((2,6-dioxopiperidin-3-yl)amino)phenyl)piperidin-1-yl)acetyl)piperidin-4-yl)phenyl)-4-fluoro-1-oxoisoindolin-2-yl)-N-(thiazol-2-yl)acetamide]"
–,–,–,< 50 nM,< 50 nM,< 50 nM,"O=C1CCC(Nc2ccc(C3CCN(CC(=O)N4CCC(NC(=O)c5ccc(C#Cc6cc(F)c7c(c6)C(=O)N(C(C(=O)Nc6nccs6)c6ncn8c6CCC8)C7)cn5)CC4)CC3)cc2)C(=O)N1 (stereo not drawn) [Compound 97, 5-((2-(1-(6,7-dihydro-5H-pyrrolo[1,2-c]imidazol-1-yl)-2-oxo-2-(thiazol-2-ylamino)ethyl)-7-fluoro-3-oxoisoindolin-5-yl)ethynyl)-N-(1-(2-(4-(4-((2,6-dioxopiperidin-3-yl)amino)phenyl)piperidin-1-yl)acetyl)piperidin-4-yl)picolinamide]"
50 to 150 nM,< 50 nM,< 50 nM,–,–,–,"O=C1CCC(Nc2ccc(C3CCN(CC(=O)N4CCN(c5ccc(-c6cc(F)c7c(c6)C(=O)N(C(C(=O)Nc6ccccn6)c6ncn8c6CCC8)C7)cc5)CC4)CC3)c(F)c2)C(=O)N1 (stereo not drawn) [Compound 20, 2-(6,7-dihydro-5H-pyrrolo[1,2-c]imidazol-1-yl)-2-[6-[4-[4-[2-[4-[4-[(2,6-dioxo-3-piperidyl)amino]-2-fluoro-phenyl]-1-piperidyl]acetyl]piperazin-1-yl]phenyl]-4-fluoro-1-oxo-isoindolin-2-yl]-N-(2-pyridyl)acetamide]"
< 50 nM,< 50 nM,< 50 nM,–,–,–,"O=C1CC[C@H](Nc2ccc(C3CCN(CC(=O)N4CCN(c5ccc(-c6cc(F)c7c(c6)C(=O)N(C(C(=O)Nc6nccs6)c6ncn8c6C[C@@H](F)C8)C7)cc5)CC4)CC3)c(F)c2)C(=O)N1 (stereo partly drawn) [Compound 44, 2-[6-[4-[4-[2-[4-[4-[[(3S)-2,6-dioxo-3-piperidyl]amino]-2-fluoro-phenyl]-1-piperidyl]acetyl]piperazin-1-yl]phenyl]-4-fluoro-1-oxo-isoindolin-2-yl]-2-[(6R)-6-fluoro-6,7-dihydro-5H-pyrrolo[1,2-c]imidazol-1-yl]-N-thiazol-2-yl-acetamide]"

# The remaining lines, values behind:
SMILES,DC50 ([1]; Table 9A),"DC50 [2, 4]",DC50 ([3]; Table 9A),DC50 ([1]; Table 9B),"DC50 [2, 5]",DC50 ([3]; Table 9B)
"O=C1CCC(Nc2ccc(C3CCN(CC(=O)N4CCN(Cc5ccc(-c6cc(F)c7c(c6)C(=O)N(C(C(=O)Nc6nccs6)c6ncn8c6CCC8)C7)cc5)CC4)CC3)c(F)c2)C(=O)N1 (stereo not drawn) [Compound 57, 2-(6,7-dihydro-5H-pyrrolo[1,2-c]imidazol-1-yl)-2-[6-[4-[[4-[2-[4-[4-[(2,6-dioxo-3-piperidyl)amino]-2-fluoro-phenyl]-1-piperidyl]acetyl]piperazin-1-yl]methyl]phenyl]-4-fluoro-1-oxo-isoindolin-2-yl]-N-thiazol-2-yl-acetamide]",< 50 nM,< 50 nM,< 50 nM,–,–,–
"Cn1nc(N2CCC(=O)NC2=O)c2ccc(C3CCN(CC(=O)N4CCN(c5ccc(-c6cc(F)c7c(c6)C(=O)N(C(C(=O)Nc6nccs6)c6ncn8c6CCC8)C7)cc5)CC4)CC3)cc21 (stereo not drawn) [Compound 17, 2-(6,7-dihydro-5H-pyrrolo[1,2-c]imidazol-1-yl)-2-(6-(4-(4-(2-(4-(3-(2,4-dioxotetrahydropyrimidin-1(2H)-yl)-1-methyl-1H-indazol-6-yl)piperidin-1-yl)acetyl)piperazin-1-yl)phenyl)-4-fluoro-1-oxoisoindolin-2-yl)-N-(thiazol-2-yl)acetamide]",< 50 nM,< 50 nM,< 50 nM,–,–,–
N#Cc1cc(NC2CCC(=O)NC2=O)ccc1C1CCN(CC(=O)N2CCC(Oc3ccc(-c4cc(F)c5c(c4)C(=O)N(C(C(=O)Nc4nccs4)c4ncn6c4CCC6)C5)cc3)CC2)CC1 (stereo not drawn) [Compound 37],< 50 nM,< 50 nM,< 50 nM,–,–,–
"O=C1CC[C@@H](Nc2ccc(N3CCC(O)(CC(=O)N4CC5(C4)CN(c4ccc(-c6cc(F)c7c(c6)C(=O)N(C(C(=O)Nc6nccs6)c6ncn8c6CCC8)C7)cc4)C5)CC3)c(F)c2)C(=O)N1 (stereo partly drawn) [Compound 98, 2-(6,7-dihydro-5H-pyrrolo[1,2-c]imidazol-1-yl)-2-[6-[4-[2-[2-[1-[4-[[(3R)-2,6-dioxo-3-piperidyl]-amino]-2-fluoro-phenyl]-4-hydroxy-4-piperidyl]acetyl]-2,6-diazaspiro[3.3]heptan-6-yl]phenyl]-4-fluoro-1-oxo-isoindolin-2-yl]-N-thiazol-2-yl-acetamide]",–,–,–,< 50 nM,< 50 nM,< 50 nM
"O=C1CC[C@H](Nc2ccc(C3CCN(CC(=O)N4CCC(c5ccc(-c6cc(F)c7c(c6)C(=O)N(C(C(=O)Nc6nccs6)c6ncn8c6CCC8)C7)cc5)CC4)CC3)c(F)c2)C(=O)N1 (stereo partly drawn) [Compound 24, 2-(6,7-dihydro-5H-pyrrolo[1,2-c]imidazol-1-yl)-2-(6-(4-(1-(2-(4-(4-(((S)-2,6-dioxopiperidin-3-yl)amino)-2-fluorophenyl)piperidin-1-yl)acetyl)piperidin-4-yl)phenyl)-4-fluoro-1-oxoisoindolin-2-yl)-N-(thiazol-2-yl)acetamide]",50 to 150 nM,< 50 nM,< 50 nM,–,–,–
"O=C1CCC(Nc2ccc(C3CCN(CC(=O)N4CCN(c5ccc(-c6cc(F)c7c(c6)C(=O)N(C(C(=O)Nc6nccs6)c6ncn8c6C[C@@H](F)C8)C7)cc5)CC4)CC3)cc2)C(=O)N1 (mixture of isomers) [Compound 43, (2RS)-2-[6-[4-[4-[2-[4-[4-[[(3RS)-2,6-Dioxo-3-piperidyl]amino]phenyl]-1-piperidyl]acetyl]piperazin-1-yl]phenyl]-4-fluoro-1-oxo-isoindolin-2-yl]-2-[(6R)-6-fluoro-6,7-dihydro-5H-pyrrolo[1,2-c]imidazol-1-yl]-N-thiazol-2-yl-acetamide]",< 50 nM,< 50 nM,< 50 nM,–,–,–

# From patent US20240158418A1 (C4 Therapeutics, Inc., priority 2021, published 2024)
